This note sets out measurements from patent US20200239530A1, “COMPOUNDS AND METHODS OF MODULATING PROTEIN DEGRADATION” (Vividion Therapeutics, Inc., priority 2017, published 2020).

The target of this assay is T1, TBC1D15 TBC1 domain family member 15 (Homo sapiens, UniProt Q8TC07).
T1 construct: Cells were resuspended in cold PBS on ice and sonicated with a probe sonicator to achieve lysis; endogenous in cells
T1 sequence (Q8TC07 1-691): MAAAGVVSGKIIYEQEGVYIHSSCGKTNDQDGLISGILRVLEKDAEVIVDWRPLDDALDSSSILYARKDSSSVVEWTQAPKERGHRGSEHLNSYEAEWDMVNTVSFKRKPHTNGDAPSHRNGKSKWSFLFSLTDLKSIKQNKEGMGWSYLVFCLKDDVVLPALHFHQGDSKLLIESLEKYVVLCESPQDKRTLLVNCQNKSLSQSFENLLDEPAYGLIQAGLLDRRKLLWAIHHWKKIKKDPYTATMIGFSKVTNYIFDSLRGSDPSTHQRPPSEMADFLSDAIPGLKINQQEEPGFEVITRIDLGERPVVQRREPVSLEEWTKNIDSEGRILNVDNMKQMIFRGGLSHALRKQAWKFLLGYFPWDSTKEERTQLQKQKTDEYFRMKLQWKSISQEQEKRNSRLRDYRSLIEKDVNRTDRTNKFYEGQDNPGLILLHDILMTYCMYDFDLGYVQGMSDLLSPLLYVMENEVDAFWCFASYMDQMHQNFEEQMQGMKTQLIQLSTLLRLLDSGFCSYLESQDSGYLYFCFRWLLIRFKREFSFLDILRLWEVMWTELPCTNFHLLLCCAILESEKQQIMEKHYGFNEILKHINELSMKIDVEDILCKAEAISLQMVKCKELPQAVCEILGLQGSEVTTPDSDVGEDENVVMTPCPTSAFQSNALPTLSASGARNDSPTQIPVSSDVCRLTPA
As to the kind of experiment: Cysteine liganding, probe competition. It counts as binding. The essentials:
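Lysates from probe-sonicated cells in PBS (5 mg/ml proteome) were exposed to compound for 1 hr at 25° C, then labelled with desthiobiotin iodoacetamide probe (10 mM stock) for 1 hr at 25° C. Probe-tagged peptides were streptavidin-enriched after trypsin digestion.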

Turning to `COc1ccc2c(c1)CCCN2C(=O)CCl` [KB02], where the note is “TBC1D15 Res# 24, uniprot Q8TC07”, the Liganded result is reported as “YES”.
With `O=C(CCl)Nc1cc(C(F)(F)F)cc(C(F)(F)F)c1` [KBO3], under “uniprot Q8TC07”, the “100 Max” value is 7.83, the 100 ave turned out to be 0.88, the “500 Max” value was 47.51 and the 500 ave is 47.51.
